In patent US20090233999A1, “COMPOSITIONS AND THERAPEUTIC METHODS INVOLVING ISOFLAVONES AND ANALOGUES THEREOF” (NOVOGEN RESEARCH PTY LTD, priority 1999, published 2009):

Key:
TNFα = TNFα production by murine splenocytes; format: cell-based, mouse; details: 10 μM; LPS
Description: Male Skh-1 (hairless) mice, approximately six weeks old were killed by cervical dislocation. Single cell suspensions were made from the spleen and erythrocytes were lysed in buffer (0.14M NH4Cl, 17 mM Tris, pH 7.2). The remaining splenocytes were cultured in RPMI-1640 (Gibco) supplemented with 10% (v:v) FBS, 2 mM L-glutamine, pen/strep and 50 μM 2-mercaptoethanol. Splenocytes were added to quadruplicate wells containing either the T cell mitogen concanavalin A (Con A, Sigma-Aldrich—0. 4 μg/well), the B-cell mitogen LPS (Sigma-Aldrich—1 μg/well) or no mitogen, as well as test compound at a concentration of 10 μM in DMSO. Samples were analysed after a 3 day incubation at 37° C. in 5% CO2 in air. Cell viability was assessed by adding MTT to each well, incubating for a further 4 hrs and then developing colour with 0.04N HCl in isopropanol. Supernatant samples were frozen at −80° C. and IL-6, IFN-γ and TNFα were detected in triplicate using ELISA kits (BD Biosciences).

eNOS = eNOS mRNA expression in HAECs (real-time PCR); format: cell-based, human; details: 10 μM; for increase of eNOS mRNA over vehicle control (average): two more assays
Description: HAECs were grown as described above.

A7r5 = test: Proliferation of rat aortic smooth muscle cell line A7r5; format: cell-based; details: A7R5, 72 h, three days, read-out: VSMC proliferation - IC50 (μM), A7r5
Description: (§1) Human umbilical vein smooth muscle cells (HUVSMC), tissue explants from a neonate (HRI— passage 2), were seeded into 96 well plates at 1×10^3 cells per well, and allowed to attach for 24 hours. They were then washed twice and incubated in medium without FBS for 24-48 hours to serum-starve them. Test compounds were prepared in medium without FBS and added to the plates and incubated for one hour. Medium with FBS was added to give a final concentration of 10% and the plates incubated for 5 days until the controls were just confluent. Final analogue concentration was therefore either a series from 150 μM to 1.2 μM, or single concentrations of 10 μM. The difference in absorbance between treated cells and untreated cells was calculated using the formula, test/control*100, to obtain the percentage change caused by the test compound. As well, an IC50 for each compound was calculated.
(§2) The effect of test compounds a rat aortic smooth muscle cell line (A7r5) and another cell line from the media of rat aorta (A10) was examined. The methodology was the same as for HUVSMC, except that the cells were treated with compound for three days.

A10 = test: Proliferation of rat aorta media cell line A10; format: cell-based; details: 72 h, three days, read-out: VSMC proliferation - IC50 (μM), A10
Description: as §1, §2

THP-1 cell viability = format: cell-based; details: human, THP-1 cells, read-out: reduction of viability of the THP-1 cells
Description: MTT is bioreduced by viable cells into a coloured formazan product that is soluble in DMSO. Thus the quantity of formazan product is directly proportional to the number of living cells in culture, and can be measured using a spectrophotometer at 570 nm. These compounds reduce MTT in the absence of cells, resulting in a change in substrate colour from yellow to purple. This activity is dependent on the reducing power of each compound and was measured at 5 concentrations (data not shown). The ability of compounds to reduce MTT was not related to their ability to inhibit NFkB-activity.

PPARγ = target: T1, PPARγ (Homo sapiens, UniProt P37231); test: PPARγ agonist activity, GAL4-PPARγ beta-lactamase reporter HEK293 cells; format: cell-based; details: FIG. 11: 5 μM
T1 construct: host or cells: HEK293 (human embryonic kidney), stably transfected
T1 sequence (P37231 238-503 limits assumed): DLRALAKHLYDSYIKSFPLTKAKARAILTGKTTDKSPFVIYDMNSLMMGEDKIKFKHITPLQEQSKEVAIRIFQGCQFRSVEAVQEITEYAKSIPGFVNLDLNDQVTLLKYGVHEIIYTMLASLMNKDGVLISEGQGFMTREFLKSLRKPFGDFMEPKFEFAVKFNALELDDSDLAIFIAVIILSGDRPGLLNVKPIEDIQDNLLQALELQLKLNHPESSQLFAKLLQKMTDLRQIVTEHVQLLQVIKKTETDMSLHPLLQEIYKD
Description: Human HEK293 cells, stably transfected with the PPARγ ligand binding domain fused with the DNA binding domain of the GAL4 protein (GAL4-PPARγ fusion protein), produce beta-lactamase when incubated with PPARγ ligands. Transfected human kidney embryonic cells (Invitrogen Inc., Carlsbad, Calif.) were seeded onto matrigel in 96-well plates and allowed to attach overnight. The following day, vehicle alone (DMSO) or test compound at 1, 5 and 10 μM was added at varying concentrations to cells and incubated for 16-18 hours. Cells were then loaded with a FRET-based fluorescent substrate to assess beta-lactamase activity. Cells were protected from light, and incubated at room temperature for 2 h. Plates were read on a fluorescence plate reader with an excitation wavelength of 409 nm and emission wavelengths of 460 nm and 530 nm. Results were expressed as a ratio of these two wavelengths after the background (cell-free control wells) had been subtracted. PPARγ activity was thus determined by measuring beta-lactamase activity as assessed by a fluorescent product to substrate ratio.

E-selectin = test: TNFα-induced E-selectin expression on HAECs (ELISA); format: cell-based, human; details: 10 μM
Description: Inhibition of TNFα-stimulated endothelial cell activation by compounds was assessed by measuring surface expression of cell adhesion molecules with an ELISA. Human arterial endothelial cells (HAECs) in growth medium (Cell Applications Inc.) were seeded into 96-well plates at a density of 10,000 cells per well. Plates were incubated overnight at 37° C. in a humidified incubator to allow for cells to become confluent. On the morning of the experiment, TNFα (10 μl, 2 ng/ml) was added to each well, which contained 100 μl of medium. Compounds were diluted in DMSO-containing medium (2.5% DMSO) to give a compound concentration of 100 and 300 μM. Compounds were added to wells so that final concentrations were 10 and 30 μM. DMSO-containing medium alone was added to zero concentration control wells. All samples were measured in quadruplicate (4 wells per treatment).
After incubation with compound for 4 hours, medium was removed and cells were probed with either non-specific IgG or specific mouse antibodies against VCAM, ICAM or E-selectin (BD Biosciences—0.1 μg in 100 μL buffered saline with 10% heat-inactivated human serum). Adhesion molecule expression was detected by addition of sheep anti-mouse antibody/horseradish peroxidase conjugate. […] Optical density was measured at 405 nm with an ELISA reader (Titertek Multiscan, Flow Laboratories).

| Compound | PPARγ activation (increase in beta-lactamase activity) (PPARγ) | TNFα synthesis by B cells (TNFα) | expression of eNOS (eNOS; 24 hrs, HAECs) | increase of eNOS mRNA over vehicle control (average) (eNOS) | IC50 (A7r5) | IC50 (A10) | cytotoxicity at 30 μM (THP-1 cell viability) | TNFα-induced E-selectin expression (E-selectin) |
| --- | --- | --- | --- | --- | --- | --- | --- | --- |
| Cc1c(O)ccc2c1OCC(c1cccc(O)c1)=C2 [Cpd. 14, 3′,7-Dihydroxy-8-methylisoflav-3-ene] |  | induced | significantly increased | 86% | 33 µM | 10 µM |  |  |
| COc1ccc(C2=Cc3ccc(O)cc3OC2)cc1OC [Cpd. 18, 7-Hydroxy-3′,4′-dimethoxyisoflav-3-ene] |  |  |  | 62% | 74 µM |  |  | inhibited |
| Oc1ccc(C2=Cc3ccc(O)c(Br)c3OC2)cc1 [Cpd. 20, 4′,7-Dihydroxy-8-bromoisoflav-3-ene] | some PPARγ agonist activity | induced |  |  | 33 µM |  |  | inhibited |
| Oc1ccc2c(c1)OCC(c1ccc(Br)cc1)=C2 [Cpd. 21, 4′-Bromo-7-hydroxyisoflav-3-ene] |  | induced |  |  |  |  | ~10% |  |

Now from value to compound, other results behind:

| PPARγ activation (increase in beta-lactamase activity) (PPARγ) | Compound | TNFα synthesis by B cells (TNFα) | expression of eNOS (eNOS; 24 hrs, HAECs) | increase of eNOS mRNA over vehicle control (average) (eNOS) | IC50 (A7r5) | IC50 (A10) | cytotoxicity at 30 μM (THP-1 cell viability) | TNFα-induced E-selectin expression (E-selectin) |
| --- | --- | --- | --- | --- | --- | --- | --- | --- |
| some PPARγ agonist activity | COc1cccc(C2=Cc3ccc(O)cc3OC2)c1 [Cpd. 16, 7-Hydroxy-3′-methoxyisoflav-3-ene] | induced |  |  | 48 µM | 31 µM | ~10% |  |
| some PPARγ agonist activity | COc1ccc(C2=Cc3ccc(O)c(C)c3OC2)cc1OC [Cpd. 19, 7-Hydroxy-3′,4′-dimethoxy-8-methylisoflav-3-ene] | inhibited |  |  |  |  |  |  |
